Source: publication PMC12348863 (Molecules, 2025)

Tests used:
[1] = In vitro permeation (PAMPA) test; type: in vitro ADME; conditions: 159 µM CBD
Experimental: In vitro permeation (PAMPA) tests were performed to evaluate differences in permeation parameters between regular (lipophilic) CBD and the water-soluble CBD complex. Atenolol and metoprolol were included as control substances. The initial concentration of CBD in the donor medium was 159 µM, while the concentrations of atenolol and metoprolol were 500 µM each. The experiments were conducted using a 96-well PAMPA plate with PVDF filter membranes (Sigma-Aldrich). The donor medium consisted of 50 mM phosphate buffer (pH 6.5, Sigma-Aldrich) containing 5% (v/v) DMSO, with a volume of 300 µL per well. The acceptor medium used was Pion’s “acceptor sink buffer” (Billerica, MA, USA), added in a volume of 200 µL per well. The artificial membrane solution consisted of 1% (w/v) cholesterol (Merck, Darmstadt, Germany) dissolved in a 3:1 (v/v) mixture of dodecane and n-hexane. Prior to the experiment, 4 µL of this membrane solution was applied to each filter membrane. Each test compound was assessed in 12 replicates. The total duration of the experiment was 260 min. […] At the end of this experiment, both donor and acceptor solutions were analysed by HPLC. CBD concentrations were determined using HPLC with UV detection, according to the method described by Križman [39] […] Atenolol and metoprolol concentrations were analysed by HPLC with FL detection, following the protocol of Yilmaz et al. [40] […]

[2] = unformulated CBD; cited from earlier work
[3] = Water solubility analysis (dissolved CBD in deionised water, HPLC); type: physicochemical
Experimental: The prepared CBD-GA complexes, in various molar ratios, were tested for water solubility. In a typical experiment, between 1.0 and 1.5 mg of the complex was accurately weighed and dissolved in 1 mL of deionised water (Merck Millipore, Burlington, MA, USA) under vigorous mixing. If necessary, an ultrasonic bath was employed to aid dissolution.
Following mixing, the solution was centrifuged for 3 min at 3000× g. The resulting supernatant was transferred to vials for HPLC analysis. The concentration of dissolved CBD was quantified using a chromatographic method with an Agilent 1260 Infinity HPLC system (Waldbronn, Germany). Further details are provided in Appendix A.4.
The concentration of CBD in dissolution and permeation test samples was assayed using an Agilent 1260 Infinity system with UV detection. The column in use was Luna C18(2) (Phenomenex, Torrance, CA, USA), with dimensions 150 mm × 3 mm, 3 µm particle size. The column flow rate was 0.8 mL/min at 37 °C. The elution was isocratic, with the mobile phase consisting of acetonitrile–water at a ratio of 31:9 (v/v), with 10 mM ammonium formate and 0.1% (v/v) formic acid added (without pH adjustment). The injection volume was 5 µL, and the run time was 5 min. The UV detector wavelength was set at 275 nm.

C=C(C)[C@@H]1CCC(C)=C[C@H]1c1c(O)cc(CCCCC)cc1O [pure CBD, Cannabidiol]
Papp at 260 min, 159 µM ([1]; donor 50 mM phosphate buffer pH 6.5 with 5% DMSO, 12 replicates, read-out: average permeability): 1.98 ×10⁻⁶ cm/s | mass retention in the lipophilic membrane ([1]; donor pH 6.5 with 5% DMSO, 260 min, average): 84% | aqueous solubility [2]: less than 60 ng/mL | solubility ([3]; deionised water, supernatant after centrifugation, HPLC, read-out: CBD Concentration (water solubility)): < 0.06 µg/mL | aqueous solubility, times lower than that of the water-soluble CBD complex ([3]; unformulated CBD versus water-soluble CBD complex): more than 400 times
